Laboratory results reported in patent US10488417B2, “Compounds for use as imaging agents” (United Arab Emirates University, priority 2014, dated 2019).

What was measured:
[1] = target: T1, α-synuclein (Homo sapiens, UniProt P37840); assay: α-synuclein oligomerization by immunoblot analysis; format: biochemical; details: compound: α-syn molar ratios 1:1, 2:1, 4:1; 5 days
T1 construct: GST (N, cleaved yes); made in house; host or cells: E. coli BL21
Method: Samples of α-synuclein (20 ng) incubated alone or with the compounds were mixed with 1× sample buffer (250 mM Tris-HCl, pH 6.8, 30% glycerol, 0.02% bromophenol blue) and then separated in 15% 1 mm SDS-PAGE gels. The separated proteins were transferred to 0.45 μm nitrocellulose membranes (Whatman Gmbh-Germany) at 90 V for 80 min. The membranes were boiled for 5 min in PBS and then blocked for 1 hour with 5% non-fat milk prepared in PBS-Tween-20 (0.05%; PBST). The membranes were incubated overnight at 4° C. with the primary mouse monoclonal anti-α-syn (211) antibody, which recognizes human α-synuclein (121-125) (Santa Cruz Biotechnology, USA), at a dilution of 1:1000. The membranes were then washed several times with PBST, followed by incubation with an HRP-conjugated goat anti-mouse antibody (Dako Ltd., Ely, UK) at a dilution of 1:70,000 for 60 minutes at room temperature with gentle agitation. The membranes were then extensively washed for 25 min, and immunoreactive bands were visualized with the Super Signal West Femto Chemiluminescent Substrate Kit (Pierce, Rockford, USA) according to the manufacturer's instructions.
The effect of Gn Rb1, salvianolic acid B and dihydromyricetin on α-synuclein oligomerization was assessed by immunoblot analysis. Fresh and aged solutions of α-synuclein alone or in the presence of Gn Rb1, salvianolic acid B or dihydromyricetin were analyzed. Samples were separated in 15% SDS gels, transferred onto a nitrocellulose membrane and probed with an antibody that recognizes the amino acid residues 121-125 of α-synuclein. The majority of freshly prepared α-synuclein migrated as a band at ˜16 KDa, corresponding to α-synuclein monomers (FIGS. 4A-C).
The amount of monomeric α-synuclein in the α-synuclein aged alone samples and in the presence of compounds was quantified against a fresh α-synuclein sample that contained only the monomeric species using ImageJ software.

[2] = target: T2, α-synuclein oligomers (Homo sapiens, UniProt P37840); assay: Binding to α-synuclein oligomers: SEC fractions P1-P3 with UV scanning; details: compound: α-synuclein 4:1, 100 μM α-synuclein, 5 days
T2 construct: GST (N, cleaved yes); made in house; host or cells: E. coli BL21
Method: SEC was carried out using an AKTA FPLC system (GE Healthcare-Sweden) and a superdex 200 column at 4° C., in order to separate the oligomers generated from the aggregation of α-synuclein with the compounds (compound: α-synuclein molar ratio of 4:1). Monomeric α-synuclein at a concentration of 100 μM was aggregated in the presence of the compounds for 5 days as described above. At the end of the aggregation process, the sample was centrifuged for 45 min at 14,000×g at 4° C. generating a supernatant free from insoluble material. Prior to injecting 80% of the generated supernatant, the column was thoroughly equilibrated with SEC running buffer (1×PBS, pH 7.4) and the flow rate was set to 0.1 ml/min (0.5 ml/fraction). The elution of α-synuclein was monitored at absorbance wavelengths of 215 nm, 254 nm, and 280 nm. To determine the elution time of monomeric α-syn, molecular weight standards (ferritin 440 kDa, aldolase 171 kDa, abmumin 68 kDa and chymotrypsinogenA 25 kDa) and monomeric α-synuclein were co-injected into the column and eluted at the same conditions mentioned above.
For the experiments with salvianolic acid B and dihydromyricetin the fractions eluting between 7-8 ml CV were combined and labeled as oligomers (sample P1), and fractions eluting between 12-14 ml CV were combined and labeled as oligomers (sample P2), whereas the fractions eluting in the 14-16 ml CV were combined and labeled as monomers (sample P3). […]
The P1, P2 and P3 samples, representing the oligomeric and monomeric fractions of SEC, were concentrated using a speed vac (CentriVap, Labconco). […] The UV absorbance spectrum was recorded from 200-600 nm in a spectrophotometer (DU-800, Beckman-Coulter) using 10 mm quartz cuvettes (Hellma Analytics-Germany) and employing equal concentrations of the P1, P2 and P3. […]

[3] = target: T1, α-synuclein; assay: Transmission electron microscopy of α-synuclein aged with compounds; format: biochemical; details: 25 μM α-synuclein, 5 days, molar ratios 4:1, 2:1, 1:1
Method: Electron images were produced from α-synuclein aged alone or in the presence of the compounds. The samples (5 μL) were deposited on Formvar-coated 400-mesh copper grids (Agar Scientific, UK), fixed briefly with 0.5% glutaraldehyde (5 μL), negatively stained with 2% uranyl acetate (Sigma-Aldrich, USA) and examined with a Philips CM-10 TEM electron microscope.

| SMILES | effect on α-synuclein oligomerization (immunoblot, densitometry) [1] | SEC samples in which compound was detected by UV absorbance (P1, P2 oligomers; P3 monomers) [2] | TEM appearance of α-synuclein aged in the presence of compound [3] |
| --- | --- | --- | --- |
| CC(C)=CCC[C@](C)(O[C@@H]1O[C@H](CO[C@@H]2O[C@H](CO)[C@@H](O)[C@H](O)[C@H]2O)[C@@H](O)[C@H](O)[C@H]1O)[C@H]1CC[C@]2(C)[C@@H]1[C@H](O)C[C@@H]1[C@@]3(C)CC[C@H](O[C@@H]4O[C@H](CO)[C@@H](O)[C@H](O)[C@H]4O[C@@H]4O[C@H](CO)[C@@H](O)[C@H](O)[C@H]4O)C(C)(C)[C@@H]3CC[C@]12C [Gn Rb1, ginsenoside Rb1] | potent inhibitor of α-synuclein oligomerization at all molar ratios | detected only in the oligomeric P2 samples | thin, short rod-like fibrils, with a fragmented appearance |
| O=C1c2c(O)cc(O)cc2O[C@H](c2cc(O)c(O)c(O)c2)[C@H]1O [dihydromyricetin] | inhibited α-synuclein oligomerization in a dose-dependent fashion | detected in both P2 and P3 | thin, short rod-like fibrils, with a fragmented appearance |
| O=C(/C=C/c1ccc(O)c2c1[C@H](C(=O)O[C@H](Cc1ccc(O)c(O)c1)C(=O)O)[C@@H](c1ccc(O)c(O)c1)O2)O[C@H](Cc1ccc(O)c(O)c1)C(=O)O [salvianolic acid B] | inhibited α-synuclein oligomerization in a dose-dependent fashion | detected in the P2 sample | thin, short rod-like fibrils, with a fragmented appearance |
